Measured values reported in patent US20070128217A1 (priority 2003, published 2007).

How the values were obtained:
[1] = system: antibodies in sera from SARS patients (sera 1a, 1b, 2, 6, 37, 62, London, SARS-yellow, SARS-green); format: binding, human; design: Binding of serum 6 to linear peptides of protein X1 of SARS-CoV Urbani / Binding of serum 37 to linear peptides of protein X1 of SARS-CoV Urbani / Binding of serum 6 to looped/cyclic peptide (PEPSCAN-ELISA) / Binding of serum 37 to looped/cyclic peptide (PEPSCAN-ELISA) / Binding of serum 37 to looped/cyclic peptides of protein X1 of SARS-CoV Urbani / Binding of serum 6 to linear peptides of protein X2 / Binding of serum 37 to linear peptides of protein X2 / Binding of serum 37 to looped/cyclic peptides of protein X2 of SARS-CoV Urbani / Binding of serum 6 to linear peptides of protein M of SARS-CoV Urbani / Binding of serum 37 to linear peptides of protein M of SARS-CoV Urbani / Binding of serum 6 to looped/cyclic peptides of protein M of SARS-CoV Urbani / Binding of serum 37 to looped/cyclic peptides of protein M of SARS-CoV Urbani / Binding of serum 6 to linear peptides of protein X3 of SARS-CoV Urbani / Binding of serum 37 to linear peptides of protein X3 of SARS-CoV Urbani / Binding of serum 37 to looped/cyclic peptides of protein X3 of SARS-CoV Urbani / Binding of serum 6 to linear peptides of protein X4 of SARS-CoV Urbani / Binding of serum 37 to linear peptides of protein X4 of SARS-CoV Urbani / Binding of serum 37 to looped/cyclic peptides of protein X4 of SARS-CoV Urbani / Binding of serum 6 to linear peptides of protein X5 of SARS-CoV Urbani / Binding of serum 37 to linear peptides of protein X5 of SARS-CoV Urbani / Binding of serum 37 to looped/cyclic peptides of protein X5 of SARS-CoV Urbani / Binding of serum 6 to linear peptides of protein N of SARS-CoV Urbani / Binding of serum 37 to linear peptides of protein N of SARS-CoV Urbani / Binding of serum 6 to linear peptide (PEPSCAN-ELISA) / Binding of serum 1a to looped/cyclic peptides of protein N of SARS-CoV Urbani / Binding of serum 1b to looped/cyclic peptides of protein N of SARS-CoV Urbani / Binding of serum 2 to looped/cyclic peptides of protein N of SARS-CoV Urbani / Binding of serum 6 to looped/cyclic peptides of protein N of SARS-CoV Urbani / Binding of serum 37 to looped/cyclic peptides of protein N of SARS-CoV Urbani / Binding of serum 62 to looped/cyclic peptides of protein N of SARS-CoV Urbani / Binding of serum London to looped/cyclic peptides of protein N of SARS-CoV Urbani / Binding of serum SARS-green to looped/cyclic peptides of protein N of SARS-CoV Urbani: unit not given here
[2] = system: control sera (pooled serum of ten healthy LUMC hospital workers; commercial negative donor pooled serum from the Dutch bloodbank); format: binding, human; design: Binding of Control serum LUMC to linear peptides / Binding of Control serum Blood-bank to linear peptides / Binding of Control serum LUMC to looped peptides / Binding of Control Serum Blood-Bank to Looped peptides / Binding of Control serum LUMC to linear peptides of the protein M of SARS-CoV Urbani / Binding of Control serum Blood-bank to linear peptides of the protein M of SARS-CoV Urbani / Binding of Control serum LUMC to looped peptides of the protein M of SARS-CoV Urbani / Binding of Control Serum Blood-Bank to Looped peptides of the protein M of SARS-CoV Urbani: unit not given here
[3] = system: rabbit serum obtained by immunizing a rabbit with the SARS-CoV strain Frankfurt 1; format: binding; design: Binding of a rabbit serum to linear peptides / Binding of a rabbit serum to looped peptides / Rabbit serum linear peptides / Rabbit serum looped peptides / Binding of a rabbit serum to linear peptides of protein N of SARS-CoV Urbani (Rabbit serum linear peptides) / Binding of a rabbit serum to looped/cyclic peptides of protein N of SARS-CoV Urbani (Rabbit serum looped peptides): unit not given here

With WNLVIGFLFLAWIML the “Binding of serum 1a to linear peptides of protein M of SARS-CoV Urbani” value [1] was 0.7, the “Binding of serum 1a to looped/cyclic peptides of protein M of SARS-CoV Urbani” value [1] was 0.6 and the “Binding of serum 1b to linear peptides of protein M of SARS-CoV Urbani” value [1] was 0.6. For the same sequence, the “Binding of serum 1b to looped/cyclic peptides of protein M of SARS-CoV Urbani” value [1] was 0.5, the “Binding of serum 2 to linear peptides of protein M of SARS-CoV Urbani” value [1] was 0.4 and the “Binding of serum 2 to looped/cyclic peptides of protein M of SARS-CoV Urbani” value [1] was 0.6. The “Binding of serum 6 to linear peptides of protein M of SARS-CoV Urbani” value [1] was 0.3, the “Binding of serum 6 to looped/cyclic peptides of protein M of SARS-CoV Urbani” value [1] was 0.4 and the “Binding of serum 37 to linear peptides of protein M of SARS-CoV Urbani” value [1] was 0.4. For the same sequence, the “Binding of serum 37 to looped/cyclic peptides of protein M of SARS-CoV Urbani” value [1] was 0.6, the “Binding of serum 62 to linear peptides of protein M of SARS-CoV Urbani” value [1] was 0.4 and the “Binding of serum 62 to looped/cyclic peptides of protein M of SARS-CoV Urbani” value [1] was 0.6. For the same sequence, the “Binding of serum London to linear peptides of protein M of SARS-CoV Urbani” value [1] was 0.3, the “Binding of serum London to looped/cyclic peptides of protein M of SARS-CoV Urbani” value [1] was 0.2 and the “Binding of serum SARS-green to linear peptides of protein M of SARS-CoV Urbani” value [1] was 0.4. The “Binding of serum SARS-green to looped/cyclic peptides of protein M of SARS-CoV Urbani” value [1] was 0.3, the “Binding of serum SARS-yellow to linear peptides of protein M of SARS-CoV Urbani” value [1] was 0.2 and the “Binding of serum SARS-yellow to looped/cyclic peptides of protein M of SARS-CoV Urbani” value [1] was 0.7. The “Binding of Control Serum Blood-Bank to Looped peptides of the protein M of SARS-CoV Urbani” value [2] was 0.5, the “Binding of Control serum Blood-bank to linear peptides of the protein M of SARS-CoV Urbani” value [2] was 0.6 and the “Binding of Control serum LUMC to linear peptides of the protein M of SARS-CoV Urbani” value [2] was 0.6. For the same sequence, the “Binding of Control serum LUMC to looped peptides of the protein M of SARS-CoV Urbani” value [2] was 0.7, the “Rabbit serum linear peptides” value [3] was 0.2 and the “Rabbit serum looped peptides” value [3] was 0.3.
GVAFLAVFQSATKII was tested, and the “Binding of serum 1a to linear peptides of protein X1 of SARS-CoV Urbani” value [1] was 0.7, the “Binding of serum 1a to looped/cyclic peptide (PEPSCAN-ELISA)” value [1] was 0.6 and the “Binding of serum 1b to linear peptides of protein X1 of SARS-CoV Urbani” value [1] was 0.6. The “Binding of serum 1b to looped/cyclic peptide (PEPSCAN-ELISA)” value [1] was 0.4, the “Binding of serum 2 to linear peptides of protein X1 of SARS-CoV Urbani” value [1] was 0.8 and the “Binding of serum 2 to looped/cyclic peptide (PEPSCAN-ELISA)” value [1] was 0.6. The “Binding of serum 6 to linear peptides of protein X1 of SARS-CoV Urbani” value [1] was 0.7, the “Binding of serum 6 to looped/cyclic peptide (PEPSCAN-ELISA)” value [1] was 0.5 and the “Binding of serum 37 to linear peptides of protein X1 of SARS-CoV Urbani” value [1] was 0.6. For the same sequence, the “Binding of serum 37 to looped/cyclic peptide (PEPSCAN-ELISA)” value [1] was 0.6, the “Binding of serum 62 to linear peptides of protein X1 of SARS-CoV Urbani” value [1] was 0.6 and the “Binding of serum 62 to looped/cyclic peptide (PEPSCAN-ELISA)” value [1] was 0.6. For the same sequence, the “Binding of serum London to linear peptides of protein X1 of SARS-CoV Urbani” value [1] was 0.2, the “Binding of serum London to looped/cyclic peptide (PEPSCAN-ELISA)” value [1] was 0.4 and the “Binding of serum SARS-green to linear peptides of protein X1 of SARS-CoV Urbani” value [1] was 0.3. For the same sequence, the “Binding of serum SARS-green to looped/cyclic peptide (PEPSCAN-ELISA)” value [1] was 0.3, the “Binding of serum SARS-yellow to linear peptides of protein X1 of SARS-CoV Urbani” value [1] was 0.2 and the “Binding of serum SARS-yellow to looped/cyclic peptide (PEPSCAN-ELISA)” value [1] was 0.3. For the same sequence, the “Binding of Control Serum Blood-Bank to Looped peptides” value [2] was 0.7, the “Binding of Control serum Blood-bank to linear peptides” value [2] was 0.5 and the “Binding of Control serum LUMC to linear peptides” value [2] was 0.7. For the same sequence, the “Binding of Control serum LUMC to looped peptides” value [2] was 0.7, the “Binding of a rabbit serum to linear peptides” value [3] was 0.9 and the “Binding of a rabbit serum to looped peptides” value [3] was 0.6.
For LLVAAGMEAQFLYLY, the “Binding of serum 1a to linear peptides of protein X1 of SARS-CoV Urbani” value [1] was 0.8, the “Binding of serum 1a to looped/cyclic peptide (PEPSCAN-ELISA)” value [1] was 0.6 and the “Binding of serum 1b to linear peptides of protein X1 of SARS-CoV Urbani” value [1] was 0.7. For the same sequence, the “Binding of serum 1b to looped/cyclic peptide (PEPSCAN-ELISA)” value [1] was 0.5, the “Binding of serum 2 to linear peptides of protein X1 of SARS-CoV Urbani” value [1] was 0.6 and the “Binding of serum 2 to looped/cyclic peptide (PEPSCAN-ELISA)” value [1] was 0.6. The “Binding of serum 6 to linear peptides of protein X1 of SARS-CoV Urbani” value [1] was 0.5, the “Binding of serum 6 to looped/cyclic peptide (PEPSCAN-ELISA)” value [1] was 0.3 and the “Binding of serum 37 to linear peptides of protein X1 of SARS-CoV Urbani” value [1] was 0.6. For the same sequence, the “Binding of serum 37 to looped/cyclic peptide (PEPSCAN-ELISA)” value [1] was 0.6, the “Binding of serum 62 to linear peptides of protein X1 of SARS-CoV Urbani” value [1] was 0.5 and the “Binding of serum 62 to looped/cyclic peptide (PEPSCAN-ELISA)” value [1] was 0.6. The “Binding of serum London to linear peptides of protein X1 of SARS-CoV Urbani” value [1] was 0.3, the “Binding of serum London to looped/cyclic peptide (PEPSCAN-ELISA)” value [1] was 0.2 and the “Binding of serum SARS-green to linear peptides of protein X1 of SARS-CoV Urbani” value [1] was 0.1. The “Binding of serum SARS-green to looped/cyclic peptide (PEPSCAN-ELISA)” value [1] was 0.4, the “Binding of serum SARS-yellow to linear peptides of protein X1 of SARS-CoV Urbani” value [1] was 0.4 and the “Binding of serum SARS-yellow to looped/cyclic peptide (PEPSCAN-ELISA)” value [1] was 0.5. For the same sequence, the “Binding of Control Serum Blood-Bank to Looped peptides” value [2] was 0.5, the “Binding of Control serum Blood-bank to linear peptides” value [2] was 0.5 and the “Binding of Control serum LUMC to linear peptides” value [2] was 0.7. For the same sequence, the “Binding of Control serum LUMC to looped peptides” value [2] was 0.6, the “Binding of a rabbit serum to linear peptides” value [3] was 0.2 and the “Binding of a rabbit serum to looped peptides” value [3] was 0.5.
